Data reported in ChEMBL document CHEMBL5096234, “Discovery, Optimization, and Evaluation of Selective CDK4/6 Inhibitors for the Treatment of Breast Cancer” (J Med Chem, 2022).
Active and inactive are the calls of the source. The calls are words filed in the database; no cut-off is given here.

How the values were obtained:
[1] = […] stability in human liver microsomes assessed as half life preincubated for 10 mins followed by NADPH addition by LC-MS/MS analysis; assay type: ADME, Microsome
[2] = Acute toxicity in ICR mouse assessed as animal death at 5000 mg/kg, po administered as single dose and measured every 2 days for 14 days; assay type: organism-based; settings: in vivo, 336 h, time 14 day
[3] = tested on: MCF7; experiment: Induction of cell cycle arrest in human MCF7 cells assessed as accumulation of cells at G2 phase at 6 uM incubated for 24 hrs by propidium iodide staining based flow cytometry analysis (reference value: 29.66%); assay type: functional
[4] = tested on: MCF7; experiment: Induction of cell cycle arrest in human MCF7 cells assessed as accumulation of cells at G1 phase at 3 uM incubated for 24 hrs by propidium iodide staining based flow cytometry analysis (reference value: 57.38%); assay type: functional
[5] = tested on: ZR-75-1; experiment: Antiproliferative activity against human ZR-75-1 cells assessed as cell growth inhibition incubated for 72 hrs by CCK-8 assay; assay type: functional
[6] = tested on: MCF7; experiment: Induction of cell cycle arrest in human MCF7 cells assessed as accumulation of cells at G2 phase at 3 uM incubated for 24 hrs by propidium iodide staining based flow cytometry analysis (reference value: 29.66%); assay type: functional
[7] = tested on: T47D; experiment: Induction of cell cycle arrest in human T47D cells assessed as accumulation of cells at G1 phase at 1 uM incubated for 24 hrs by propidium iodide staining based flow cytometry analysis (reference value: 69.55 %); assay type: functional
[8] = tested on: T47D; experiment: Downregulation c-MYC level in human T47D cells incubated for 24 hrs by Western blot analysis; assay type: functional, cell-based; settings: dose 1-4 µM, DDE = dose-dependent effect
[9] = AUC (0 to infinity) in Sprague-Dawley rat 10 mg/kg, po by LC/MS/MS analysis; assay type: ADME, organism-based; parameters: time infinity, dose 10 mg/kg, route po; settings: in vivo
[10] = Acute toxicity in ICR mouse assessed as spleen lesions at 5000 mg/kg, po administered as single dose and measured every 2 days for 14 days by H and E staining based analysis; assay type: organism-based; settings: in vivo, 336 h, time 14 day
[11] = tested on: T47D; experiment: Induction of cell cycle arrest in human T47D cells assessed as accumulation of cells at G2 phase at 1 uM incubated for 24 hrs by propidium iodide staining based flow cytometry analysis (reference value: 16.57%); assay type: functional
[12] = tested on: MCF7; experiment: Antitumor activity against human MCF7 cells xenografted in BALB/c mouse assessed as inhibition of tumor growth at 150 mg/kg, po administered once daily and measured every 2 days for 23 days; assay type: functional, organism-based; settings: time 23.0 day
[13] = tested on: T47D; experiment: Antiproliferative activity against human T47D cells assessed as cell growth inhibition incubated for 72 hrs by CCK-8 assay; assay type: functional
[14] = tested on: MCF7; experiment: Inhibition of clone formation in human MCF7 cells at 0.75 to 6 uM by crystal voilet staining based analysis; assay type: functional, cell-based; settings: dose 0.75-6 µM, time 2.0 weeks
[15] = target: CDK6/cyclin D1 (Homo sapiens, UniProt Q00534); experiment: Inhibition of CDK6/cyclin-D1 (unknown origin) in presence of ATP by time resolved-FRET assay; assay type: protein-complex assay
[16] = MRT (0 to infinity) in Sprague-Dawley rat 10 mg/kg, po by LC/MS/MS analysis; assay type: ADME, organism-based; settings: in vivo
[17] = Cmax in Sprague-Dawley rat 1 mg/kg, iv by LC/MS/MS analysis; assay type: ADME, organism-based; parameters: dose 1 mg/kg, route iv; settings: in vivo
[18] = target: CDK2/Cyclin A2 (Homo sapiens, UniProt P24941); experiment: Inhibition of CDK2/Cyclin A (unknown origin) in presence of ATP by time resolved-FRET assay; assay type: protein-complex assay
[19] = […] stability in human liver microsomes assessed as intrinsic clearance preincubated for 10 mins followed by NADPH addition by LC-MS/MS analysis; assay type: ADME, Microsome; settings: read-out: CLH
[20] = target: CDK7/Cyclin H/MNAT1 (Homo sapiens, UniProt P50613); experiment: Inhibition of CDK7/cyclin H/MAT1 (unknown origin) in presence of ATP by time resolved-FRET assay; assay type: protein-complex assay
[21] = tested on: T47D; experiment: Antiproliferative activity against human T47D cells assessed as inhibition of cell growth at 1 to 4 uM incubated for 5 days by CCK-8 assay; assay type: functional, cell-based; settings: dose 1-4 µM, time 5.0 day
[22] = tested on: MCF-10A; experiment: Antiproliferative activity against human MCF-10A cells assessed as cell growth inhibition incubated for 72 hrs by CCK-8 assay; assay type: functional
[23] = Acute toxicity in ICR mouse assessed as change in lung weight at 1000 to 5000 mg/kg, po administered as single dose and measured every 2 days for 14 days; assay type: organism-based; settings: in vivo, 336 h, dose 1000-5000 mg/kg, time 14 day
[24] = tested on: T47D; experiment: Inhibition of clone formation in human T47D cells at 1 to 8 uM by crystal voilet staining based analysis; assay type: functional, cell-based; settings: dose 1-8 µM, time 2.0 weeks
[25] = Acute toxicity in ICR mouse assessed as heart kidney at 5000 mg/kg, po administered as single dose and measured every 2 days for 14 days by H and E staining based analysis; assay type: organism-based; settings: in vivo, 336 h, time 14 day
[26] = tested on: T47D; experiment: Induction of cell cycle arrest in human T47D cells assessed as accumulation of cells at G1 phase at 4 uM incubated for 24 hrs by propidium iodide staining based flow cytometry analysis (reference value: 69.55 %); assay type: functional
[27] = target: CDK4/Cyclin D3 (Homo sapiens, UniProt P11802); experiment: Inhibition of CDK4/cyclin-D3 (unknown origin) in presence of ATP by time resolved-FRET assay; assay type: protein-complex assay
CDK4/Cyclin D3, sequence (P11802 whole entry): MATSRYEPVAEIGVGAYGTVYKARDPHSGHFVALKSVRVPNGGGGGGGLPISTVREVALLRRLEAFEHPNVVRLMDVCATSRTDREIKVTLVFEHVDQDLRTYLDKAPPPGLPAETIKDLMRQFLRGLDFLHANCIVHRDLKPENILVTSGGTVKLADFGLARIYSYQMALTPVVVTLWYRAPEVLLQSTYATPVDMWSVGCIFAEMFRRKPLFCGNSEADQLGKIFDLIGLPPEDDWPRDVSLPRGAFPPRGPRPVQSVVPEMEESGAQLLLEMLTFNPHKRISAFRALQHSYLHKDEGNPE
CDK4/Cyclin D3, sequence (P30281 whole entry, further chain): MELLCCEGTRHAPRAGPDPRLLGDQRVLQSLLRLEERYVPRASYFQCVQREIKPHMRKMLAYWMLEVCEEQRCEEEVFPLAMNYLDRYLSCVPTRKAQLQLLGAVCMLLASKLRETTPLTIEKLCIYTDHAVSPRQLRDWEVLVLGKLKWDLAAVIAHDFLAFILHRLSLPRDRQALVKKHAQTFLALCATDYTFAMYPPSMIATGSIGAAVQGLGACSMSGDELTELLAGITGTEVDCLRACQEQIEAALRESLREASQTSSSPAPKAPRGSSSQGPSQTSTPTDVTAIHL

CDK7/Cyclin H/MNAT1, sequence (P51946 whole entry): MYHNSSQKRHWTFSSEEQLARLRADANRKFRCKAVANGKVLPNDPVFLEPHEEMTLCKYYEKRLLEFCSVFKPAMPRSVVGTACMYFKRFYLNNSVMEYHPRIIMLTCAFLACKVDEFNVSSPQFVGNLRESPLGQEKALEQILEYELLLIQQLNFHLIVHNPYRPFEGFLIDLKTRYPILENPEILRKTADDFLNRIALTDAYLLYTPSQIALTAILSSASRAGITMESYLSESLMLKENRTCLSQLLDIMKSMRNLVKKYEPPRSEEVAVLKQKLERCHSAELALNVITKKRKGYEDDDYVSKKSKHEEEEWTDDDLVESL
CDK7/Cyclin H/MNAT1, sequence (P50613 whole entry): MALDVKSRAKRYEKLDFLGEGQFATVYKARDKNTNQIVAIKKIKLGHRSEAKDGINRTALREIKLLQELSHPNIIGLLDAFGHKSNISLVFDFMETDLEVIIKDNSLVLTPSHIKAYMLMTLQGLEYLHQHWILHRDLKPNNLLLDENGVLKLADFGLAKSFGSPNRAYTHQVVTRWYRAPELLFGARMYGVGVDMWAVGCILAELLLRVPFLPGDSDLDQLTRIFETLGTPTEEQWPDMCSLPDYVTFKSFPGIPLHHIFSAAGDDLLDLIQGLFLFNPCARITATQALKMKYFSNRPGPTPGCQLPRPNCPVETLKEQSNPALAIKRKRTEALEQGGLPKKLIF
CDK7/Cyclin H/MNAT1, sequence (P51948 whole entry, further chain): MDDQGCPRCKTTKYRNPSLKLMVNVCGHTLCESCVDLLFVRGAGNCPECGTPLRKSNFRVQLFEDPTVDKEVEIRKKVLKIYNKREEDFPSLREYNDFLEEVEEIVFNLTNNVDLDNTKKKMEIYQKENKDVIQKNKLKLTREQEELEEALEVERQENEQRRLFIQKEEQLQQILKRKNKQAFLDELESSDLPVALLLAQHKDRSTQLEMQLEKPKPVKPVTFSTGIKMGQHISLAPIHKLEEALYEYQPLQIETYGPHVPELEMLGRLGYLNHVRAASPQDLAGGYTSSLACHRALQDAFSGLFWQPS
CDK6/cyclin D1, sequence (P24385 whole entry): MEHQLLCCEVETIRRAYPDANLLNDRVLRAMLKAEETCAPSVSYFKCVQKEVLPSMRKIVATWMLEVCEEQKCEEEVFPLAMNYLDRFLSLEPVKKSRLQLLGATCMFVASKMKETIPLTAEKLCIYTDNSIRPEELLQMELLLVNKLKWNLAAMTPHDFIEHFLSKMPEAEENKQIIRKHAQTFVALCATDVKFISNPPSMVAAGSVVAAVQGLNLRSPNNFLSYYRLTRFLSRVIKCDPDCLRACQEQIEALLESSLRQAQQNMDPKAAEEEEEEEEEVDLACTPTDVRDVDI
CDK6/cyclin D1, sequence (Q00534 whole entry): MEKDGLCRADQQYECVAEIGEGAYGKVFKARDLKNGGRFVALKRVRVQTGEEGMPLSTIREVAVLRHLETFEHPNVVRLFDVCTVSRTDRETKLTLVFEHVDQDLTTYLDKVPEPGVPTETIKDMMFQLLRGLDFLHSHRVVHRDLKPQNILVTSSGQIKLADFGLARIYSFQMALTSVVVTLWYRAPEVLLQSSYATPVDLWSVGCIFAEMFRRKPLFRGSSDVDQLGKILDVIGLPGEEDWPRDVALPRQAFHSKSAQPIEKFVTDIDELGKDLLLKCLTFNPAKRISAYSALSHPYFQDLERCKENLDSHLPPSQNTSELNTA

CCN1CCc2cc(-c3nc(Nc4ccc(N5CCNCC5)cn4)ncc3F)ccc2C1=O
half-life [1]: 1.8 h | Activity [2]: Non-Toxic | Activity [3]: 10.67% | Activity [4]: 83.91% | GI50 [5]: 3200 nM | Activity [6]: 11.42% | Activity [7]: 83.14% | Activity [8]: Dde | AUC(0-inf) [9]: 1610 ng·h/mL | Activity [10]: Non-Toxic | Activity [11]: 7.59% | inhibition [12]: Active | GI50 [13]: 887 nM | inhibition [14]: Active | IC50 [15]: 16 nM | MRT inf [16]: 9.11 h | Cmax [17]: 291 ng/mL | IC50 [18]: 1050 nM | CLint scaled [19]: 11.5 mL/min/kg | IC50 [20]: 2600 nM | inhibition [21]: Active | GI50 [22]: 17600 nM | Activity [23]: Non-Toxic | inhibition [24]: Active | Activity [25]: Non-Toxic | Activity [26]: 87.12% | IC50 [27]: 10 nM
